Experimental findings from US9315503B2, “Kinase inhibitors” (CHIESI FARMACEUTICI S.p.A., priority 2011, dated 2016) are described below.

Experiment [1] has as its system LPS-stimulated TNFα release from PBMCs. Description: LPS-stimulated PBMC TNFα release assay. Format: cell-based. The note with it: inhibition of TNFα release, human PBMCs, LPS 10 ng/ml, 18 h, ELISA, read-out: p38α inhibition (IC50 values). Put shortly:
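Healthy-donor human PBMCs, density-gradient isolated, preincubated 1 h at 37 °C with compound in 1% FBS RPMI 1640, then stimulated with LPS (10 ng/ml) for 18 h. Supernatant TNFα by ELISA; IC50 from dose-response of % inhibition of control release, n≥3 experiments.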
In general terms: ELISA stands for enzyme-linked immunosorbent assay.

For experiment [2], the target named is T1, p38alpha (Homo sapiens, UniProt Q16539).
T1 construct: purchased Invitrogen PV3304
T1 sequence (Q16539 whole entry): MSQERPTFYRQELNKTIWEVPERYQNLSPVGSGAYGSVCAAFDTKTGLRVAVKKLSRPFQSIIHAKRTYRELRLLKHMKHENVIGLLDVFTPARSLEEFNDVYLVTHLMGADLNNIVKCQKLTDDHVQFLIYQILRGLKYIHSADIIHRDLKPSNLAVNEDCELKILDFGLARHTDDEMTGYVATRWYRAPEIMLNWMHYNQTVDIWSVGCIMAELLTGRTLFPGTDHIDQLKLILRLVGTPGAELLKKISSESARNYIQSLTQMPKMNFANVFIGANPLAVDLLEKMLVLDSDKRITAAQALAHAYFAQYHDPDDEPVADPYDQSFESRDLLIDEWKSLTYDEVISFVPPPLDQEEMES
Description: P38Alpha enzyme inhibition assay (Alphascreen kinase activity assay). The class given is biochemical. The note with it: 100 pM p38alpha, 250 μM ATP, 2 hours pre-incubation at 25° C., read-out: p38α inhibition (IC50 values). Put shortly: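 p38α (100 pM) with ATF-2 fusion protein substrate (0.3 µg/ml) in pH 7.5 HEPES/MgCl2 buffer, 1% DMSO, preincubated 2 h at 25°C with compound. Reaction started with 250 µM ATP, ran 1 h at 25°C, then stopped with EDTA. Phospho-ATF2 antibody detected by AlphaScreen luminescence; IC50 from concentration-response curves.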
Background: Bead proximity is the source of the signal in Alpha formats.

Experiment [3] relates to BAL cell influx induced by TS. Description: Pre-clinical mouse model of COPD: tobacco smoke induced pulmonary inflammation. Format: in vivo. The following applies: mice, 3, 30 or 100 μg/kg, intranasal route, 4 daily TS exposures, BAL 24 h after final exposure (FIG. 1). The text has this:
Pre-Clinical Mouse Model of COPD Tobacco Smoke Induced Pulmonary Inflammation.
This timepoint was used in the studies reported here.
Protocols for the exposure of mice to TS, obtaining bronchoalveolar lavage fluid (BALF) and preparation of cytospin slides for differential cell counts are as outlined below.
Daily Exposure of Mice to TS for 4 Consecutive Days.
In this exposure protocol, mice were exposed in groups of 5 in individual clear polycarbonate chambers (27 cm×16 cm×12 cm). The TS from the cigarettes was allowed to enter the exposure chambers at a flow rate of 100 ml/min. In order to minimise any potential problems caused by repeated exposure to a high level of TS, the exposure of the mice to TS was increased gradually over the exposure period to a maximum of 6 cigarettes. […]
Lavage fluid was separated from cells by centrifugation and the supernatant decanted and frozen for subsequent analyses. The cell pellet was re-suspended in a known volume of PBS and total cell numbers calculated by counting a stained (Turks stain) aliquot under a microscope using a haemocytometer. […]
The residual cell pellet was diluted to approximately 10^5 cells per ml. […] Approximately four hundred cells were counted by an unbiased operator using light microscopy. […]
All results are presented as individual data points for each animal and the mean value was calculated for each group. […]

Counter-ions that a name gives are not always drawn.

For `Cc1ccc(-n2nc(C(C)(C)C)cc2NC(=O)N[C@H]2CC[C@@H](Oc3ccc4nnc([C@@H]5CCCN5C)n4c3)c3ccccc32)cc1` [Example 5, 1-(5-tert-Butyl-2-p-tolyl-2H-pyrazol-3-yl)-3-[(1S,4R)-4-[3-((S)-1-methyl-pyrrolidin-2-yl)-[1,2,4]triazolo[4,3-a]pyridin-6-yloxy)-1,2,3,4-tetrahydro-naphthalen-1-yl]-urea], the IC50 in experiment [1] and in experiment [2] was under 10 nM each time. Moreover, the “BAL cell influx induced by TS” value in experiment [3] is listed as “significantly inhibited”.

Regarding `C[C@H]1CCCCN1c1nnc2ccc(O[C@@H]3CC[C@H](NC(=O)Nc4cc(C(C)(C)C)nn4CCN(C)C)c4ccccc43)cn12` [Example 127, 1-[5-tert-Butyl-2-(2-dimethylamino-ethyl)-2H-pyrazol-3-yl]-3-{(1S,4R)-4-[3-((S)-2-methyl-piperidin-1-yl)-[1,2,4]triazolo[4,3-a]pyridin-6-yloxy]-1,2,3,4-tetrahydro-naphthalen-1-yl}-urea formate salt], the 50% inhibitory concentration (IC50) in experiment [1] and in experiment [2] was under 10 nM each time.

Regarding `C[C@H]1CCCCN1c1nnc2ccc(O[C@@H]3CC[C@H](NC(=O)Nc4cc(C(C)(C)C)nn4CCN4CCCCC4)c4ccccc43)cn12` [Example 128, 1-[5-tert-Butyl-2-(2-piperidin-1-yl-ethyl)-2H-pyrazol-3-yl]-3-{(1S,4R)-4-[3-((S)-2-methyl-piperidin-1-yl)-[1,2,4]triazolo[4,3-a]pyridin-6-yloxy]-1,2,3,4-tetrahydro-naphthalen-1-yl}-urea formate salt], the IC50 in experiment [1] and in experiment [2] was under 10 nM each time.

In the case of `C[C@H]1CCCCN1c1nnc2ccc(O[C@@H]3CC[C@H](NC(=O)Nc4cc(C(C)(C)C)nn4CCN4CCN(C)CC4)c4ccccc43)cn12` [Example 129, 1-{5-tert-Butyl-2-[2-(4-methyl-piperazin-1-yl)-ethyl]-2H-pyrazol-3-yl}-3-{(1S,4R)-4-[3-((S)-2-methyl-piperidin-1-yl)-[1,2,4]triazolo[4,3-a]pyridin-6-yloxy]-1,2,3,4-tetrahydro-naphthalen-1-yl}-urea formate salt], the IC50 – broadly, the concentration that gives 50% inhibition – in experiment [1] was 10 to 100 nM; in experiment [2], under 10 nM.

As for `C[C@@H]1CCC[C@H](C)N1c1nnc2ccc(O[C@@H]3CC[C@H](NC(=O)Nc4cc(C(C)(C)C)nn4-c4cccc(CN5CCOCC5)c4)c4ccccc43)cn12` [Example 130, 1-[5-tert-Butyl-2-(3-morpholin-4-ylmethyl-phenyl)-2H-pyrazol-3-yl]-3-{(1S,4R)-4-[3-((2S,6R)-2,6-dimethyl-piperidin-1-yl)-[1,2,4]triazolo[4,3-a]pyridin-6-yloxy]-1,2,3,4-tetrahydro-naphthalen-1-yl}-urea formate salt], the IC50 in experiment [1] and in experiment [2] was under 10 nM in each case.
